Results on eight compounds are retold here after PubChem BioAssay (NCI).

Test systems include PC-3 prostate; ACHN renal; MCF7 breast; SF-268 CNS; A498 renal; UACC-62 melanoma; HOP-62 NSCLC; NCI-H522 lung; SW-620 colon; DU-145 prostate.
Assay in all cases: NCI-60 cell line screen, 48 h

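How tested: cells in 96-well plates exposed to compound for 48 hours at five concentrations. GI50 marks 50% less growth. TGI is the concentration that stops growth completely.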

With `C=C(C(=O)OC)[C@@H]1C[C@@H](O)[C@]2(C)CC/C=C(\C)CCC[C@H](C)[C@H](O)C1O2`, the GI50 is 30.9 µM in the assay on PC-3 prostate; 57.5 µM in the assay on ACHN renal; 31.7 µM with MCF7 breast; 65 µM with SF-268 CNS; 65.9 µM with A498 renal; 40.5 µM in the assay on UACC-62 melanoma. In addition, the GI50 in the assay on HOP-62 NSCLC is over 100 µM; in the assay with NCI-H522 lung, 26.1 µM; in the assay on SW-620 colon, 42.2 µM; in the assay on DU-145 prostate, 45.5 µM. For the same compound, the TGI with PC-3 prostate, with ACHN renal, with MCF7 breast, with SF-268 CNS, in the assay with A498 renal and with UACC-62 melanoma was over 100 µM throughout. Moreover, the TGI with HOP-62 NSCLC, with NCI-H522 lung, in the assay on SW-620 colon and in the assay with DU-145 prostate was over 100 µM throughout.

Take `Cc1[nH]nc(C(=O)Nc2n[nH]c3ccccc23)c1[N+](=O)[O-]`: the GI50 was over 100 µM in the assay with PC-3 prostate; over 100 µM in the assay on ACHN renal; 53.3 µM in the assay on MCF7 breast; over 100 µM with SF-268 CNS; over 76.6 µM in the assay with A498 renal; over 93.7 µM in the assay with UACC-62 melanoma. For the same compound, the GI50 is over 100 µM in the assay on HOP-62 NSCLC, 39.4 µM with NCI-H522 lung, over 100 µM in the assay with SW-620 colon and over 79.7 µM in the assay with DU-145 prostate. Moreover, the TGI in the assay with PC-3 prostate, in the assay with ACHN renal, in the assay with MCF7 breast, in the assay with SF-268 CNS, in the assay with A498 renal and with UACC-62 melanoma was over 100 µM each time. Also, the TGI with HOP-62 NSCLC, in the assay on NCI-H522 lung, in the assay on SW-620 colon and with DU-145 prostate was over 100 µM throughout.

Turning to `O=C(CC(=O)c1ccccc1NC1=Cc2ccccc2C(=O)C1=O)C(=O)NC1=C(Cl)C(=O)c2ccccc2C1=O`, the TGI in the assay on PC-3 prostate amounted to 6.69 µM; in the assay on ACHN renal, 10.7 µM; in the assay on MCF7 breast it was 7.32 µM; in the assay with SF-268 CNS, 11.8 µM; in the assay on A498 renal, 30.3 µM; with UACC-62 melanoma it was 3.97 µM. The TGI with HOP-62 NSCLC amounted to 17.9 µM; with NCI-H522 lung, 4.79 µM; in the assay with SW-620 colon, 7.98 µM; in the assay on DU-145 prostate, 16.1 µM.

Consider `COc1ccc2sc3c(NCCCNCCO)nc4ccccc4c3c(=O)c2c1`, for which the GI50 is 1.58 µM in the assay on PC-3 prostate; 1.63 µM with ACHN renal; 1.54 µM in the assay on MCF7 breast; 1.52 µM with SF-268 CNS; 1.49 µM in the assay with A498 renal; 1.7 µM in the assay on UACC-62 melanoma. Besides, the GI50 was 1.59 µM in the assay on HOP-62 NSCLC, 1.74 µM in the assay on NCI-H522 lung, 1.61 µM in the assay with SW-620 colon and 1.6 µM in the assay with DU-145 prostate. For the same compound, the TGI in the assay on PC-3 prostate was 3.1 µM; in the assay with ACHN renal, 2.99 µM; with MCF7 breast, 3.1 µM; with SF-268 CNS it was 3.16 µM; with A498 renal, 2.97 µM; with UACC-62 melanoma it was 3.16 µM. For the same compound, the TGI is 3.26 µM with HOP-62 NSCLC, 3.37 µM in the assay with NCI-H522 lung, 3.13 µM in the assay with SW-620 colon and 2.98 µM in the assay with DU-145 prostate.

In the case of `O=C1C(=O)c2c(nc3ncccn23)-c2ccccc21`, the GI50 with PC-3 prostate was 0.32 µM; in the assay with ACHN renal, 0.174 µM; in the assay with MCF7 breast, 0.179 µM; with SF-268 CNS, 0.339 µM; in the assay on A498 renal it was 0.484 µM; in the assay on UACC-62 melanoma it was 0.177 µM. For the same compound, the GI50 in the assay on HOP-62 NSCLC was 0.296 µM; with NCI-H522 lung it was 0.232 µM; in the assay with SW-620 colon, 0.214 µM; with DU-145 prostate it was 0.181 µM. The TGI is 1.34 µM with PC-3 prostate; 0.373 µM with ACHN renal; 0.406 µM in the assay on MCF7 breast; 1.13 µM with SF-268 CNS; 1.28 µM in the assay with A498 renal; 0.326 µM in the assay with UACC-62 melanoma. Moreover, the TGI turned out to be 1.05 µM in the assay with HOP-62 NSCLC, 0.753 µM with NCI-H522 lung, 0.461 µM in the assay on SW-620 colon and 0.336 µM with DU-145 prostate.

As to `COc1cccc(C2C(C#N)=C(N)Oc3cc(OC)ccc32)c1` (stereo not given), the GI50 in the assay with PC-3 prostate is 0.0373 µM; with ACHN renal, 0.138 µM; in the assay on MCF7 breast, 0.0211 µM; with SF-268 CNS it was 0.0762 µM; in the assay on A498 renal, 0.0198 µM; with UACC-62 melanoma, 0.0682 µM. For the same compound, the GI50 in the assay on HOP-62 NSCLC is 0.0418 µM; with NCI-H522 lung, under 0.0105 µM; in the assay with SW-620 colon, 0.035 µM; in the assay with DU-145 prostate it was 0.0347 µM. In addition, the TGI in the assay on PC-3 prostate was over 94.6 µM; in the assay with ACHN renal, over 100 µM; in the assay on MCF7 breast, over 72.4 µM; in the assay on SF-268 CNS, over 82.3 µM; in the assay with A498 renal it was 0.0709 µM; with UACC-62 melanoma it was over 94.9 µM. The TGI with HOP-62 NSCLC is over 76.6 µM; with NCI-H522 lung, 0.0556 µM; in the assay with SW-620 colon, over 100 µM; with DU-145 prostate, 1.55 µM.

Regarding `Clc1ccc(-c2cn(-c3ccccc3)c(-c3ccccc3)n2)c(Cl)c1`, the GI50 with PC-3 prostate is 5.43 µM; in the assay with ACHN renal, 2.22 µM; in the assay with MCF7 breast, 1.56 µM; in the assay with SF-268 CNS, 1.78 µM; with A498 renal, 12.6 µM; in the assay with UACC-62 melanoma, over 20.2 µM. Besides, the GI50 was 1.36 µM in the assay on HOP-62 NSCLC, over 24.2 µM in the assay with NCI-H522 lung, 1.01 µM with SW-620 colon and 0.892 µM in the assay on DU-145 prostate. For the same compound, the TGI with PC-3 prostate is over 50 µM; in the assay with ACHN renal, over 50 µM; in the assay on MCF7 breast it was over 12.3 µM; with SF-268 CNS it was over 11 µM; with A498 renal, over 45.1 µM; in the assay with UACC-62 melanoma it was over 50 µM. Also, the TGI was 5.02 µM in the assay with HOP-62 NSCLC, over 50 µM in the assay with NCI-H522 lung, 2.07 µM in the assay with SW-620 colon and 2.09 µM in the assay on DU-145 prostate.

In the case of `CCc1nc(N)nc(N)c1-c1ccc(Cl)c(N=NN(C)C)c1`, the TGI was over 100 µM in the assay with PC-3 prostate; over 89.7 µM in the assay with ACHN renal; over 81.6 µM in the assay with MCF7 breast; over 100 µM with SF-268 CNS; over 100 µM in the assay on A498 renal; 76.8 µM with UACC-62 melanoma. The TGI was over 73.9 µM in the assay with HOP-62 NSCLC, 99.6 µM with NCI-H522 lung, over 100 µM in the assay on SW-620 colon and over 100 µM in the assay with DU-145 prostate.
